Data taken from ChEMBL document CHEMBL1148857, “In vitro and in vivo profile of 5-[(4'-trifluoromethyl-biphenyl-2-carbonyl)-amino]-1H-indole-2-carboxylic acid benzylmethyl carbamoylamide (dirlotapide), a novel potent MTP inhibitor for obesity” (Bioorg Med Chem Lett, 2007).
The source made the active and inactive calls. The rule behind the calls is not given here.

What was measured:
[1] = Inhibition of MTP assessed as inhibition of apoB secretion from canine hepatocytes; assay type: cell-based; details: Canis lupus familiaris, Hepatocyte
Homo sapiens [2] = species on record: Homo sapiens; assay: Inhibition of GABA receptor at 1 uM
[3] = biological target: Histamine H1 receptor (Homo sapiens) (UniProt P35367); assay: Inhibition of histamine H1 receptor at 1 uM
[4] = biological target: Histamine H2 receptor (Homo sapiens) (UniProt P25021); assay: Inhibition of histamine H2 receptor at 1 uM
[5] = biological target: Adrenergic receptor alpha-1 (Homo sapiens) (UniProt P35348+P25100+P35368); assay: Inhibition of adrenergic a1 receptor at 1 uM; assay type: protein assay
[6] = biological target: Adenosine receptor A1 (Homo sapiens) (UniProt P30542); assay: Inhibition of adenosine A1 receptor at 1 uM
[7] = biological target: Adrenergic receptor alpha-2 (Homo sapiens) (UniProt P08913+P18825+P18089); assay: Inhibition of adrenergic a2 receptor at 1 uM; assay type: protein assay
[8] = biological target: Type-2 angiotensin II receptor (Homo sapiens) (UniProt P50052); assay: Inhibition of AT2 receptor at 1 uM
Homo sapiens [9] = species on record: Homo sapiens; assay: Inhibition of central benzodiazepine receptor at 1 uM
[10] = biological target: B1 bradykinin receptor (Homo sapiens) (UniProt P46663); assay: Inhibition of bradykinin B1 receptor at 1 uM
[11] = biological target: B2 bradykinin receptor (Homo sapiens) (UniProt P30411); assay: Inhibition of bradykinin B2 receptor at 1 uM
[12] = biological target: D(3) dopamine receptor (Homo sapiens) (UniProt P35462); assay: Inhibition of dopamine D3 receptor at 1 uM
[13] = biological target: D(4) dopamine receptor (Homo sapiens) (UniProt P21917); assay: Inhibition of dopamine D4 receptor at 1 uM
[14] = biological target: Serotonin 3 (5-HT3) receptor (Homo sapiens) (UniProt P46098+A5X5Y0+O95264+Q70Z44+Q8WXA8); assay: Inhibition of 5HT3 receptor at 1 uM; assay type: protein-complex assay
[15] = biological target: Melanocortin receptor 4 (Homo sapiens) (UniProt P32245); assay: Inhibition of melanocortin MC4 receptor at 1 uM
[16] = biological target: Muscarinic acetylcholine receptor M2 (Homo sapiens) (UniProt P08172); assay: Inhibition of muscarinic M2 receptor at 1 uM
[17] = biological target: Mu-type opioid receptor (Homo sapiens) (UniProt P35372); assay: Inhibition of mu opioid receptor at 1 uM
[18] = biological target: Glucocorticoid receptor (Homo sapiens) (UniProt P04150); assay: Inhibition of glucocorticoid receptor at 1 uM
[19] = biological target: Voltage-gated L-type calcium channel (Homo sapiens, UniProt Q13936+Q13698+Q01668+O60840); assay: Inhibition of L-type calcium channel at 1 uM
[20] = Intrinsic clearance in rat microsomes; assay type: ADME, Microsome
[21] = Intrinsic clearance in dog microsomes; assay type: ADME, Canis lupus familiaris, Liver, Microsome
[22] = Intrinsic clearance in human microsomes; assay type: ADME, Microsome
CYP3A4 = assay: Metabolic stability in human liver microsome at 0.5 uM in presence of 1 uM CYP3A4 inhibitor ketoconazole; assay type: ADME; details: liver microsomes, with 1 uM ketoconazole (CYP3A4 inhibitor)
CYP2D6 = assay: Metabolic stability in human liver microsome at 0.5 uM in presence of 5 uM CYP2D6 inhibitor quinidine; assay type: ADME; details: liver microsomes, with 5 uM quinidine (CYP2D6 inhibitor)
Plasma = assay: Percentage unbound ligand in dog blood at 0.2 uM; assay type: ADME, cell-free, Canis lupus familiaris
[23] = Ratio of drug level in blood to plasma in dog; assay type: ADME, cell-free, Canis lupus familiaris; details: blood and plasma, read-out: BPR
[24] = Ratio of drug level in blood to plasma in human; assay type: ADME, cell-free; details: blood and plasma, read-out: BPR
Mus musculus = species on record: Mus musculus; assay: Inhibition of intestinal MTP in mouse assessed as inhibition of intestinal fat absorption; assay type: functional
[25] = Plasma clearance in rat at 1 mg/kg, iv; assay type: ADME, organism-based; parameters: dose 1 mg/kg, route intravenous
[26] = Volume of distribution at steady state in rat at 0.3 mg/kg, iv; assay type: ADME, organism-based; parameters: dose 0.3 mg/kg, route intravenous; details: in vivo, read-out: Vdss
[27] = Volume of distribution at steady state in rat at 1 mg/kg, iv; assay type: ADME, organism-based; parameters: dose 1 mg/kg, route intravenous; details: in vivo, read-out: Vdss
[28] = Volume of distribution at steady state in Beagle dog at 1 mg/kg, iv; assay type: ADME, organism-based, Canis lupus familiaris; parameters: dose 1 mg/kg, route intravenous; details: in vivo, read-out: Vdss
[29] = Volume of distribution at steady state in monkey at 0.5 mg/kg, iv; assay type: ADME, organism-based, Macaca mulatta; parameters: dose 0.5 mg/kg, route intravenous; details: rhesus monkey, in vivo, read-out: Vdss
[30] = Half life in rat at 1 mg/kg, iv; assay type: ADME, organism-based; parameters: dose 1 mg/kg, route intravenous; details: in vivo
[31] = Half life in rat at 5 mg/kg, iv; assay type: ADME, organism-based; parameters: dose 5 mg/kg, route intravenous; details: in vivo
[32] = Half life in monkey at 0.5 mg/kg, iv; assay type: ADME, organism-based, Macaca mulatta; parameters: dose 0.5 mg/kg, route intravenous; details: rhesus monkey, in vivo
[33] = AUC (0 to t) in rat at 0.3 mg/kg, iv; assay type: ADME, organism-based; parameters: dose 0.3 mg/kg, route intravenous; details: plasma
[34] = AUC (0 to t) in Beagle dog at 1 mg/kg, iv; assay type: ADME, organism-based, Canis lupus familiaris; parameters: dose 1 mg/kg, route intravenous; details: plasma
[35] = AUC (0 to infinity) in rat at 5 mg/kg, iv; assay type: ADME, organism-based; parameters: time infinity, dose 5 mg/kg, route intravenous; details: plasma
[36] = AUC (0 to infinity) in Beagle dog at 1 mg/kg, iv; assay type: ADME, organism-based, Canis lupus familiaris; parameters: time infinity, dose 1 mg/kg, route intravenous; details: plasma
[37] = AUC (0 to infinity) in portal cannulated Beagle dog at 1 mg/kg, iv; assay type: ADME, organism-based, Canis lupus familiaris; parameters: time infinity, dose 1 mg/kg, route intravenous; details: plasma
[38] = Half life in portal cannulated Beagle dog at 1 mg/kg, po; assay type: ADME, organism-based, Canis lupus familiaris; parameters: dose 1 mg/kg, route oral; details: in vivo
[39] = Half life in Beagle dog at 5 mg/kg, po; assay type: ADME, organism-based, Canis lupus familiaris; parameters: dose 5 mg/kg, route oral; details: in vivo
[40] = AUC (0 to infinity) in portal cannulated Beagle dog at 1 mg/kg, po; assay type: ADME, organism-based, Canis lupus familiaris; parameters: time infinity, dose 1 mg/kg, route oral; details: plasma
[41] = AUC (0 to infinity) in Beagle dog at 0.5 mg/kg, po; assay type: ADME, organism-based, Canis lupus familiaris; parameters: time infinity, dose 0.5 mg/kg, route oral; details: plasma
[42] = Cmax in rat at 30 mg/kg, po after 2.8 hrs; assay type: ADME, organism-based; parameters: dose 30 mg/kg, route oral; details: in vivo
[43] = Cmax in rat at 300 mg/kg, po; assay type: ADME, organism-based; parameters: dose 300 mg/kg, route oral; details: in vivo
[44] = Tmax in rat at 300 mg/kg, po; assay type: ADME, organism-based; parameters: dose 300 mg/kg, route oral; details: in vivo
[45] = Tmax in portal cannulated Beagle dog at 1 mg/kg, po; assay type: ADME, organism-based, Canis lupus familiaris; parameters: dose 1 mg/kg, route oral; details: in vivo
[46] = Tmax in Beagle dog at 5 mg/kg, po; assay type: ADME, organism-based, Canis lupus familiaris; parameters: dose 5 mg/kg, route oral; details: in vivo
[47] = Bioavailability in rat at 30 mg/kg, po; assay type: ADME, organism-based; details: in vivo
[48] = Bioavailability in rat at 300 mg/kg, po; assay type: ADME, organism-based; details: in vivo
Canis familiaris [49] = assay: Effect on body weight in obese Beagle dog assessed as weight loss at 0.39 mg/kg, po after 3 months relative to control; assay type: functional, Canis lupus familiaris
Canis familiaris [50] = assay: Decrease in food intake in obese Beagle dog at 0.39 mg/kg, po after 3 months; assay type: functional, Canis lupus familiaris; parameters: scale not given: the % may be the effect or the level left
Canis familiaris [51] = assay: Decrease in cholesterol level in obese Beagle dog at 0.39 mg/kg, po after 3 months; assay type: functional, Canis lupus familiaris; parameters: scale not given: the % may be the effect or the level left
[52] = Permeability from basolateral to apical side of the Caco-2 cell membrane at 10 uM in presence of calcium; assay type: ADME, cell-based; details: human
Cytochrome P450 2C9 = Cytochrome P450 2C9 (Homo sapiens, UniProt P11712); assay: Inhibition of CYP2C9; assay type: ADME
Cytochrome P450 2C19 = Cytochrome P450 2C19 (Homo sapiens, UniProt P33261); assay: Inhibition of CYP2C19; assay type: ADME
Cytochrome P450 2D6 = Cytochrome P450 2D6 (Homo sapiens, UniProt P10635); assay: Inhibition of CYP2D6; assay type: ADME
Cytochrome P450 2D6, sequence (P10635 whole entry): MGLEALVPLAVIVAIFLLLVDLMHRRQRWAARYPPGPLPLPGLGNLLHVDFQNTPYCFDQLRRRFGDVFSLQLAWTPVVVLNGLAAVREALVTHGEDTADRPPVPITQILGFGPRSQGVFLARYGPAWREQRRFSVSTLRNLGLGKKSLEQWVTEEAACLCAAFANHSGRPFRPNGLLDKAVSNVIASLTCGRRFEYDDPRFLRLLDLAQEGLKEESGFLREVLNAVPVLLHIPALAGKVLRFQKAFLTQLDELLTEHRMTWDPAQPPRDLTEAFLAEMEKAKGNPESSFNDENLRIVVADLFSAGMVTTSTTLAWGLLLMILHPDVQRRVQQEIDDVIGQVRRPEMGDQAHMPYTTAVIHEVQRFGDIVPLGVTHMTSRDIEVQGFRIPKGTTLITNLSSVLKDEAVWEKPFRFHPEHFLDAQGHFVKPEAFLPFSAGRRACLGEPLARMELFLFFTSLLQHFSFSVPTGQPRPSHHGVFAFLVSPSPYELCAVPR

D(3) dopamine receptor (Homo sapiens), sequence (P35462 whole entry): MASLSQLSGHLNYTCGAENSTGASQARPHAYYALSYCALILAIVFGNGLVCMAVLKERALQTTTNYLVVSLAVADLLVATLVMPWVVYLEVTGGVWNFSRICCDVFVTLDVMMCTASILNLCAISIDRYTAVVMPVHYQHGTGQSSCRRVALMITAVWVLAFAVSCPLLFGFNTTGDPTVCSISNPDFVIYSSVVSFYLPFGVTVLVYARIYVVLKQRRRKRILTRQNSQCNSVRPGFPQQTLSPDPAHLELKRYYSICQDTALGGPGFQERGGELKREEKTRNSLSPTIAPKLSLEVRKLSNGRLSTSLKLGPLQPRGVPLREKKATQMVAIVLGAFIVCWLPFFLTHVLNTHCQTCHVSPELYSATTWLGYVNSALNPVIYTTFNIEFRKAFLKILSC
Cytochrome P450 2C19, sequence (P33261 whole entry): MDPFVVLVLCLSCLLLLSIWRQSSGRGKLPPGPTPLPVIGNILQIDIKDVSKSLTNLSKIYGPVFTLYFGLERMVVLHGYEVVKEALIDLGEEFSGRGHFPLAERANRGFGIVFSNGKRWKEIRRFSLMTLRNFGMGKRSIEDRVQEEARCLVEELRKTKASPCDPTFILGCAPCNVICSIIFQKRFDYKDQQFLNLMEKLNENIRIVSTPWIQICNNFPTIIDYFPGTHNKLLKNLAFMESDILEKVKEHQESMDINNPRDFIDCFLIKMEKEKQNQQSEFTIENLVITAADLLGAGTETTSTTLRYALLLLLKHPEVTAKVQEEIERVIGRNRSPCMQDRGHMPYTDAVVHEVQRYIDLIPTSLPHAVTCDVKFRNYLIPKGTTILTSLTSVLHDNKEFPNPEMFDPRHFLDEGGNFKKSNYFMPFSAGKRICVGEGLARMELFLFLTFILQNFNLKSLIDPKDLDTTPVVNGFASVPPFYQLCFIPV
Muscarinic acetylcholine receptor M2 (Homo sapiens), sequence (P08172 whole entry): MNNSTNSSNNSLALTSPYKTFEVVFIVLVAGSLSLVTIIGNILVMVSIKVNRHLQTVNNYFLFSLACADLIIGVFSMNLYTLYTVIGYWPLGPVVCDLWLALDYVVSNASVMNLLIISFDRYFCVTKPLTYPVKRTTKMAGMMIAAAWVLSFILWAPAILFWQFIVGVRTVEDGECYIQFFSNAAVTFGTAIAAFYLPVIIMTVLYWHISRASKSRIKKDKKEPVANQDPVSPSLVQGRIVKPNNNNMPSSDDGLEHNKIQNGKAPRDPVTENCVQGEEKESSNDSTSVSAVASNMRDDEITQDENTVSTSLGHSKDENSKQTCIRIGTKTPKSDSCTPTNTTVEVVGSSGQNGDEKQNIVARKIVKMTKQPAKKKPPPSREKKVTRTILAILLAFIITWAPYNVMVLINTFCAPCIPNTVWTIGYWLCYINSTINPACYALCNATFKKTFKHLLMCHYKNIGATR
Histamine H2 receptor (Homo sapiens), sequence (P25021 whole entry): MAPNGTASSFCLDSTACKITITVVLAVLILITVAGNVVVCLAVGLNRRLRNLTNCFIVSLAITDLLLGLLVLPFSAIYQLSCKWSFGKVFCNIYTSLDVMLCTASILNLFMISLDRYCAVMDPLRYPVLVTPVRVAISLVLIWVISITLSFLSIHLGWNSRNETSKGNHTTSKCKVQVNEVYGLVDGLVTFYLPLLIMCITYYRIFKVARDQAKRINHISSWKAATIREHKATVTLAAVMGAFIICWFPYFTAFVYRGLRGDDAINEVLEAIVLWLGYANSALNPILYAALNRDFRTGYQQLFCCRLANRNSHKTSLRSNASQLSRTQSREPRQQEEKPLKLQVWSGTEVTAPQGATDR
B1 bradykinin receptor (Homo sapiens), sequence (P46663 whole entry): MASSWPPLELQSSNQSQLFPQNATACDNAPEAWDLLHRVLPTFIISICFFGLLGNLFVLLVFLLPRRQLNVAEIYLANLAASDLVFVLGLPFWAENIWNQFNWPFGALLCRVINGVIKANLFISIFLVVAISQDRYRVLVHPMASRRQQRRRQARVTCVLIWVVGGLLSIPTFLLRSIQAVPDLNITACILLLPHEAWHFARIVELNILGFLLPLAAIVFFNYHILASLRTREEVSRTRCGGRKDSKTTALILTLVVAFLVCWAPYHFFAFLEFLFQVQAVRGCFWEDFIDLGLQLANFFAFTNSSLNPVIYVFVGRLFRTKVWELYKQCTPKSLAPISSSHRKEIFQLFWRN
Glucocorticoid receptor (Homo sapiens), sequence (P04150 whole entry): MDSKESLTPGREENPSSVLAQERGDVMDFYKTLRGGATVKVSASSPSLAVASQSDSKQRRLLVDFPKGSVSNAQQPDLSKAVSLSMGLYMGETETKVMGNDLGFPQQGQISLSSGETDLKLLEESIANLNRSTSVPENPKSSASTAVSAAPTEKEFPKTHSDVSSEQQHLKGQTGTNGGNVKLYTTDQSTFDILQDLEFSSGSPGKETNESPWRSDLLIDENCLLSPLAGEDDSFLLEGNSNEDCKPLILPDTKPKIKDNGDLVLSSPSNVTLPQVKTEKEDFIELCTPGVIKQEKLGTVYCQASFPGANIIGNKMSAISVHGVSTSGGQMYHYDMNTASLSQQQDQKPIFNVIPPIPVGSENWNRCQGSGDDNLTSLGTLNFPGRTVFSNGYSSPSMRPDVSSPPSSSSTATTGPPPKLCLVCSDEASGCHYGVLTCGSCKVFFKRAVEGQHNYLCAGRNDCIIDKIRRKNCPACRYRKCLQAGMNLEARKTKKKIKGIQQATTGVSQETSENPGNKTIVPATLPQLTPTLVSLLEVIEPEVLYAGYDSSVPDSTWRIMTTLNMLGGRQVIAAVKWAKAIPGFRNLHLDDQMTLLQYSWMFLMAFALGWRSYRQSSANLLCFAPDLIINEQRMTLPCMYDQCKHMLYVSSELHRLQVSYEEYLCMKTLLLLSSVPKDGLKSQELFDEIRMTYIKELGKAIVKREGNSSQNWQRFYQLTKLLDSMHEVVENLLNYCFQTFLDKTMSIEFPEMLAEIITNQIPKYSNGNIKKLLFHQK
Histamine H1 receptor (Homo sapiens), sequence (P35367 whole entry): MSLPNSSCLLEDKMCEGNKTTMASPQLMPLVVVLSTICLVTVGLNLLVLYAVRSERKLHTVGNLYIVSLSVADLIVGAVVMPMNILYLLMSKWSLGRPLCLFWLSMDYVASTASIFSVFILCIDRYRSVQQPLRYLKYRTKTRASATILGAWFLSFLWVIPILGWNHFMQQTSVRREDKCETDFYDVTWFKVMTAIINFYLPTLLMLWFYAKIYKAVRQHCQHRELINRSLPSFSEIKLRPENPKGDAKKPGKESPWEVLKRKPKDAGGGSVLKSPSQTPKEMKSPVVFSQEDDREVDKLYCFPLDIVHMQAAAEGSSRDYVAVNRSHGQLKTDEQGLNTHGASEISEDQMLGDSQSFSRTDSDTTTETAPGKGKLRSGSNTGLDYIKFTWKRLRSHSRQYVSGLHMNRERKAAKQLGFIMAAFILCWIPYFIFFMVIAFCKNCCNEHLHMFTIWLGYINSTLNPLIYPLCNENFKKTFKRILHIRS
Type-2 angiotensin II receptor (Homo sapiens), sequence (P50052 whole entry): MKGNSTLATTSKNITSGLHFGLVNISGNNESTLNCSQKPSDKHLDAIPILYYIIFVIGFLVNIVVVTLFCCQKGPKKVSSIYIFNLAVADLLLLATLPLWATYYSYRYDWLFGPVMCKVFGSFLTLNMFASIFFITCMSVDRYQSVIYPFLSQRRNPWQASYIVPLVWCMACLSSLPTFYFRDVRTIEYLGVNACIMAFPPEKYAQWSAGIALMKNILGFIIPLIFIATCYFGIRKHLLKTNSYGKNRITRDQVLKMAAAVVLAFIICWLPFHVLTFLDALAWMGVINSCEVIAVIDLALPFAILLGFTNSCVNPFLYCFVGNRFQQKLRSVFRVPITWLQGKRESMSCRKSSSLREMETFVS
D(4) dopamine receptor (Homo sapiens), sequence (P21917 whole entry): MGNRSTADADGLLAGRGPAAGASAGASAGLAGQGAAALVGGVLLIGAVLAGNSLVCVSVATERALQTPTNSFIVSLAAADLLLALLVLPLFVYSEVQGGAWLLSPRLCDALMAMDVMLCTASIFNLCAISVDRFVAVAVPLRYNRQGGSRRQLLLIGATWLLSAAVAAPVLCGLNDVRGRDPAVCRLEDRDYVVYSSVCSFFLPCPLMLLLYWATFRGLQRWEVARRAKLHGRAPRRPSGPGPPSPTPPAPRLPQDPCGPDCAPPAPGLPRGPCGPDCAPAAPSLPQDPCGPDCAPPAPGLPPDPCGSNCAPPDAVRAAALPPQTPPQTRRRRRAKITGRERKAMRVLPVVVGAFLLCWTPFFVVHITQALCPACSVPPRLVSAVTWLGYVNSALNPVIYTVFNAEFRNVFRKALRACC
Adenosine receptor A1 (Homo sapiens), sequence (P30542 whole entry): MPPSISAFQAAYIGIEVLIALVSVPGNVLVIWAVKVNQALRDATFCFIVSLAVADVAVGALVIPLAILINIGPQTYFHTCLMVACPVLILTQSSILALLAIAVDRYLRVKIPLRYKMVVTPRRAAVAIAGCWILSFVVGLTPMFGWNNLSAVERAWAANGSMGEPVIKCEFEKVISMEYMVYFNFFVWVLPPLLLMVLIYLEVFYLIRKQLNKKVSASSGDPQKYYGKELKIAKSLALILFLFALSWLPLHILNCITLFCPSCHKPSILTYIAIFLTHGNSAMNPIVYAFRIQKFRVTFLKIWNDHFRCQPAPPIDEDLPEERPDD

Activity (Homo sapiens [2]): inactive
Activity [3]: inactive
Activity [4]: inactive
Activity [5]: inactive
Activity [6]: inactive
Activity [7]: inactive
Activity [8]: inactive
Activity (Homo sapiens [9]): inactive
Activity [10]: inactive
Activity [11]: inactive
Activity [12]: inactive
Activity [13]: inactive
Activity [14]: inactive
Activity [15]: inactive
Activity [16]: inactive
Activity [17]: inactive
Activity [18]: inactive
Activity [19]: Not Active
CLint scaled [20]: 645 mL/min/kg
CLint scaled [21]: 1090 mL/min/kg
CLint scaled [22]: 91 mL/min/kg
half-life at 0.5 µM (CYP3A4): 6.15 h
half-life at 0.5 µM (CYP2D6): 0.6 h
Fu (Plasma): 0.0088%
blood plasma ratio [23]: 0.54
blood plasma ratio [24]: 0.61
clearance [25]: 37 mL/min/kg
Vd [26]: 11 L/kg
Vd [27]: 8 L/kg
Vd [28]: 1 L/kg
Vd [29]: 2.2 L/kg
half-life [30]: 5.8 h
half-life [31]: 11.3 h
half-life [32]: 6.7 h
AUC(0-t) [33]: 51 ng·h/mL
AUC(0-t) [34]: 3260 ng·h/mL
AUC(0-inf) [35]: 5890 ng·h/mL
AUC(0-inf) [36]: 3610 ng·h/mL
AUC(0-inf) [37]: 2820 ng·h/mL
half-life [38]: 6.8 h
half-life [39]: 5.9 h
AUC(0-inf) [40]: 289 ng·h/mL
AUC(0-inf) [41]: 663 ng·h/mL
Cmax [42]: 21 ng/mL
Cmax [43]: 27 ng/mL
Tmax [44]: 6 h
Tmax [45]: 6.3 h
Tmax [46]: 3 h
bioavailability [47]: 2.3%
bioavailability [48]: 1%
Papp B→A at 10 µM [52]: 0.3 ×10⁻⁶ cm/s
IC50 (Cytochrome P450 2C9): > 30 µM
IC50 (Cytochrome P450 2C19): > 30 µM
IC50 (Cytochrome P450 2D6): > 30 µM
SMILES: CN(Cc1ccccc1)C(=O)[C@@H](NC(=O)c1cc2cc(NC(=O)c3ccccc3-c3ccc(C(F)(F)F)cc3)ccc2n1C)c1ccccc1 [DIRLOTAPIDE]
IC50 [1]: 0.0015 µM
ED25 (Mus musculus): 0.16 mg/kg
Activity (Canis familiaris [49]): 18.8%
Activity (Canis familiaris [50]): 54%
Activity (Canis familiaris [51]): 51%
